Test results published in patent publication US20230286958A1, “PLASMA KALLIKREIN INHIBITORS” (Merck Sharp & Dohme LLC, priority 2020, published 2023).

Assays:
Human plasma kallikrein = Human plasma kallikrein (Homo sapiens (Human), UniProt P03952); assay: Kallikrein Assay (fluorogenic substrate Acetyl-K-P-R-AFC); format: biochemical; settings: Plasma Kallikrein (PKal)
How it was run: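 Ki is derived from IC50 with the Cheng-Prusoff equation, and IC50 from the inflection point of a four-parameter logistic curve. The rate of AFC release is read with 0.5 nM purified enzyme and […] substrate at room temperature or 37 °C.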

human Factor XIa = human Factor XIa (Homo sapiens (Human), UniProt P03951); assay: Factor XIa Assay (fluorogenic substrate GPR-AFC); format: biochemical; settings: Factor XIa (FXIa)
Sequence of human Factor XIa (P03951 388-625 limits assumed): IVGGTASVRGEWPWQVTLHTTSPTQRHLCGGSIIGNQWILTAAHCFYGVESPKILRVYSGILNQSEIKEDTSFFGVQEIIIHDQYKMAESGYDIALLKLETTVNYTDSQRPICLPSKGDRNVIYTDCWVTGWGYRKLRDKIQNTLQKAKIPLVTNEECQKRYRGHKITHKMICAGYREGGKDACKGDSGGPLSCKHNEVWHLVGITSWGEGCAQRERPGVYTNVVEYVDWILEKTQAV
Sequence of human Factor XIa (P03951 19-387 partner limits assumed): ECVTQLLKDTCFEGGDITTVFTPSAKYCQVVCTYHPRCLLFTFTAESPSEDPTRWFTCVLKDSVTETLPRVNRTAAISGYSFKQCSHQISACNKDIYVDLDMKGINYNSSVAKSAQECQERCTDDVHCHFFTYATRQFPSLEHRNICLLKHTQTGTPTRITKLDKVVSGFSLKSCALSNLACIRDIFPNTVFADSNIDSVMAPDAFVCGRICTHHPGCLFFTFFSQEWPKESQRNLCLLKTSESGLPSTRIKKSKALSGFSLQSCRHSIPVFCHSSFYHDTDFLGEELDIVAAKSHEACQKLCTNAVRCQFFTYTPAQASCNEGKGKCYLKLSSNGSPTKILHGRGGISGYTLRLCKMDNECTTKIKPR

Sequence of Human plasma kallikrein (P03952 391-638): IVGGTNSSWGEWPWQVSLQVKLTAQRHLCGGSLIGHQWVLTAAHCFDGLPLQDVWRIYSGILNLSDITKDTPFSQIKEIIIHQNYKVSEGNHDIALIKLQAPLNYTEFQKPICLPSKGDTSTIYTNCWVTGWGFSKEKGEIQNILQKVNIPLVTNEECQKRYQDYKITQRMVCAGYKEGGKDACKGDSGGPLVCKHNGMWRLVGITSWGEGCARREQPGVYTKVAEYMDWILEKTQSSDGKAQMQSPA
Sequence of Human plasma kallikrein (P03952 20-390 partner): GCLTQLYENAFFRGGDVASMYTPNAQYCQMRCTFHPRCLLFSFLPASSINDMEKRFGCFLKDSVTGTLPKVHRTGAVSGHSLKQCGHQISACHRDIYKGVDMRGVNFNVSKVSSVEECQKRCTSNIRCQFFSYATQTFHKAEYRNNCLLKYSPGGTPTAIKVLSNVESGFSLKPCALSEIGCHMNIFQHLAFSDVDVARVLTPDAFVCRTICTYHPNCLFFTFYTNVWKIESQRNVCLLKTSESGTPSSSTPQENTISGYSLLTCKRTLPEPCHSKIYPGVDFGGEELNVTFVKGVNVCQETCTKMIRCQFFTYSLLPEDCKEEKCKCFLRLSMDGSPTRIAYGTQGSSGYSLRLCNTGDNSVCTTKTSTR

Compound | IC50 (Human plasma kallikrein) [nM] | IC50 (human Factor XIa) [nM]
Cc1c(C(C)n2cc(NC(=O)c3nc(-c4c(C(F)F)ccc(Cl)c4F)cnc3CO)cn2)cnc(N2C[C@H]3C[C@H]3C2=O)c1C (single isomer, unassigned) [Example 202, 6-(3-Chloro-6-(difluoromethyl)-2-fluorophenyl)-N-(1-((R or S)-1-(4,5-dimethyl-6-((1R,5S)-2-oxo-3-azabicyclo[3.1.0]hexan-3-yl)pyridin-3-yl)ethyl)-1H-pyrazol-4-yl)-3-(hydroxymethyl)pyrazine-2-carboxamide] | 0.3 | 11
Cc1cc(N2C[C@H]3C[C@H]3C2=O)ncc1C(C)n1cc(NC(=O)c2nc(-c3c(C(F)F)ccc(Cl)c3F)cnc2CO)cn1 (single isomer, unassigned) [Example 203, 6-(3-Chloro-6-(difluoromethyl)-2-fluorophenyl)-3-(hydroxymethyl)-N-(1-((S or R)-1-(4-methyl-6-((1R,5S)-2-oxo-3-azabicyclo[3.1.0]hexan-3-yl)pyridin-3-yl)ethyl)-1H-pyrazol-4-yl)pyrazine-2-carboxamide] | 0.3 | 282
Cc1cc(N2C[C@H]3C[C@H]3C2=O)ncc1C(C)n1cc(NC(=O)c2nc(-c3c(C(F)F)ccc(Cl)c3F)cnc2CO)cn1 (single isomer, unassigned) [Example 204, 6-(3-Chloro-6-(difluoromethyl)-2-fluorophenyl)-3-(hydroxymethyl)-N-(1-((R or S)-1-(4-methyl-6-((1R,5S)-2-oxo-3-azabicyclo[3.1.0]hexan-3-yl)pyridin-3-yl)ethyl)-1H-pyrazol-4-yl)pyrazine-2-carboxamide] | 5.9 | 2520
CC(c1cnc(N2C[C@H]3C[C@H]3C2=O)c(F)c1)n1cc(NC(=O)c2nc(-c3c(C(F)F)ccc(Cl)c3F)cnc2CO)cn1 (single isomer, unassigned) [Example 205, 6-(3-Chloro-6-(difluoromethyl)-2-fluorophenyl)-N-(1-((S or R)-1-(5-fluoro-6-((1R,5S)-2-oxo-3-azabicyclo[3.1.0]hexan-3-yl)pyridin-3-yl)ethyl)-1H-pyrazol-4-yl)-3-(hydroxymethyl)pyrazine-2-carboxamide] | 0.3 | 389
CC(c1cnc(N2C[C@H]3C[C@H]3C2=O)c(F)c1)n1cc(NC(=O)c2nc(-c3c(C(F)F)ccc(Cl)c3F)cnc2CO)cn1 (single isomer, unassigned) [Example 206, 6-(3-Chloro-6-(difluoromethyl)-2-fluorophenyl)-N-(1-((R or S)-1-(5-fluoro-6-((1R,5S)-2-oxo-3-azabicyclo[3.1.0]hexan-3-yl)pyridin-3-yl)ethyl)-1H-pyrazol-4-yl)-3-(hydroxymethyl)pyrazine-2-carboxamide] | 0.3 | 120
Cc1cc(Cn2cc(NC(=O)c3nc(-c4c(C(F)F)ccc(Cl)c4F)cnc3C(C)O)cn2)nnc1N1C[C@H]2C[C@H]2C1=O (single isomer, unassigned) [Example 208] | 12.7 | 1050
Cc1cc(Cn2cc(NC(=O)c3nc(-c4c(C(F)F)ccc(Cl)c4F)cnc3C(C)O)cn2)nnc1N1C[C@H]2C[C@H]2C1=O (single isomer, unassigned) [Example 209] | 3.8 | 167
Cc1cc(C(C)n2cc(NC(=O)c3nc(-c4c(C(F)F)ccc(Cl)c4F)cnc3C(C)O)cn2)cnc1N1C[C@H]2C[C@H]2C1=O (single isomer, unassigned) [Example 210, 6-(3-Chloro-6-(difluoromethyl)-2-fluorophenyl)-3-((S or R)-1-hydroxyethyl)-N-(1-((S or R)-1-(5-methyl-6-((1R,5S)-2-oxo-3-azabicyclo[3.1.0]hexan-3-yl)pyridin-3-yl)ethyl)-1H-pyrazol-4-yl)pyrazine-2-carboxamide] | 0.4 | 186
Cc1cc(C(C)n2cc(NC(=O)c3nc(-c4c(C(F)F)ccc(Cl)c4F)cnc3C(C)O)cn2)cnc1N1C[C@H]2C[C@H]2C1=O (single isomer, unassigned) [Example 211, 6-(3-Chloro-6-(difluoromethyl)-2-fluorophenyl)-3-((R or S)-1-hydroxyethyl)-N-(1-((S or R)-1-(5-methyl-6-((1R,5S)-2-oxo-3-azabicyclo[3.1.0]hexan-3-yl)pyridin-3-yl)ethyl)-1H-pyrazol-4-yl)pyrazine-2-carboxamide] | 0.6 | 50
Cc1cc(C(C)n2cc(NC(=O)c3nc(-c4c(C(F)F)ccc(Cl)c4F)cnc3C(C)O)cn2)cnc1N1C[C@H]2C[C@H]2C1=O (single isomer, unassigned) [Example 212, 6-(3-Chloro-6-(difluoromethyl)-2-fluorophenyl)-3-((S or R)-1-hydroxyethyl)-N-(1-((R or S)-1-(5-methyl-6-((1R,5S)-2-oxo-3-azabicyclo[3.1.0]hexan-3-yl)pyridin-3-yl)ethyl)-1H-pyrazol-4-yl)pyrazine-2-carboxamide] | 1 | 354
Cc1cc(C(C)n2cc(NC(=O)c3nc(-c4c(C(F)F)ccc(Cl)c4F)cnc3C(C)O)cn2)cnc1N1C[C@H]2C[C@H]2C1=O (single isomer, unassigned) [Example 213, 6-(3-Chloro-6-(difluoromethyl)-2-fluorophenyl)-3-((Ror S)-1-hydroxyethyl)-N-(1-((R or S)-1-(5-methyl-6-((1R,5S)-2-oxo-3-azabicyclo[3.1.0]hexan-3-yl)pyridin-3-yl)ethyl)-1H-pyrazol-4-yl)pyrazine-2-carboxamide] | 0.9 | 2030
COc1cc(C(C)n2cc(NC(=O)c3nc(-c4c(C(F)F)ccc(Cl)c4F)cnc3C)cn2)cnc1N1C[C@H]2C[C@H]2C1=O (single isomer, unassigned) [Example 218, 6-(3-Chloro-6-(difluoromethyl)-2-fluorophenyl)-N(1-((S or R)-1-(5-methoxy-6-((1R,5S)-2-oxo-3-azabicyclo[3.1.0]hexan-3-yl)pyridin-3-yl)ethyl)-1H-pyrazol-4-yl)-3-methylpyrazine-2-carboxamide] | 1.8 | 414
COc1cc(C(C)n2cc(NC(=O)c3nc(-c4c(C(F)F)ccc(Cl)c4F)cnc3C)cn2)cnc1N1C[C@H]2C[C@H]2C1=O (single isomer, unassigned) [Example 219, 6-(3-Chloro-6-(difluoromethyl)-2-fluorophenyl)-N-(1-((R or S)-1-(5-methoxy-6-((1R,5S)-2-oxo-3-azabicyclo[3.1.0]hexan-3-yl)pyridin-3-yl)ethyl)-1H-pyrazol-4-yl)-3-methylpyrazine-2-carboxamide] | 0.3 | 549
Cc1ncc(-c2c(C(F)F)ccc(Cl)c2F)nc1C(=O)Nc1cnn(C(C)c2cnc(N3C[C@H]4C[C@H]4C3=O)c(OC(F)F)c2C)c1 (single isomer, unassigned) [Example 224] | 66.1 | > 10000

Next, values leading:

IC50 (Human plasma kallikrein) [nM] | IC50 (human Factor XIa) [nM] | Compound
0.9 | 5740 | Cc1ncc(-c2c(C(F)F)ccc(Cl)c2F)nc1C(=O)Nc1cnn(C(C)c2cnc(N3C[C@H]4C[C@H]4C3=O)c(OC(F)F)c2C)c1 (single isomer, unassigned) [Example 225]
0.37 | 178 | Cc1cc(C(C)n2cc(NC(=O)c3nc(-c4c(C(F)F)ccc(Cl)c4F)cnc3C(C)O)cn2)nnc1N1C[C@H]2C[C@H]2C1=O (single isomer, unassigned) [Example 229, 6-(3-Chloro-6-(difluoromethyl)-2-fluorophenyl)-3-((R or S)-1-hydroxyethyl)-N-(1-((S or R)-1-(5-methyl-6-((1R,5S)-2-oxo-3-azabicyclo[3.1.0]hexan-3-yl)pyridazin-3-yl)ethyl)-1H-pyrazol-4-yl)pyrazine-2-carboxamide]
1.1 | 1330 | Cc1cc(C(C)n2cc(NC(=O)c3nc(-c4c(C(F)F)ccc(Cl)c4F)cnc3C(C)O)cn2)nnc1N1C[C@H]2C[C@H]2C1=O (single isomer, unassigned) [Example 230, 6-(3-Chloro-6-(difluoromethyl)-2-fluorophenyl)-3-((S or R)-1-hydroxyethyl)-N-(1-((S or R)-1-(5-methyl-6-((1R,5S)-2-oxo-3-azabicyclo[3.1.0]hexan-3-yl)pyridazin-3-yl)ethyl)-1H-pyrazol-4-yl)pyrazine-2-carboxamide]
5 | 903 | Cc1cc(C(C)n2cc(NC(=O)c3nc(-c4c(C(F)F)ccc(Cl)c4F)cnc3C(C)O)cn2)nnc1N1C[C@H]2C[C@H]2C1=O (single isomer, unassigned) [Example 231, 6-(3-Chloro-6-(difluoromethyl)-2-fluorophenyl)-3-((R or S)-1-hydroxyethyl)-N-(1-((R or S)-1-(5-methyl-6-((1R,5S)-2-oxo-3-azabicyclo[3.1.0]hexan-3-yl)pyridazin-3-yl)ethyl)-1H-pyrazol-4-yl)pyrazine-2-carboxamide]
1.8 | 194 | Cc1cc(C(C)n2cc(NC(=O)c3nc(-c4c(C(F)F)ccc(Cl)c4F)cnc3C(C)O)cn2)nnc1N1C[C@H]2C[C@H]2C1=O (single isomer, unassigned) [Example 232, 6-(3-Chloro-6-(difluoromethyl)-2-fluorophenyl)-3-((S or R)-1-hydroxyethyl)-N-(1-((R or S)-1-(5-methyl-6-((1R,5S)-2-oxo-3-azabicyclo[3.1.0]hexan-3-yl)pyridazin-3-yl)ethyl)-1H-pyrazol-4-yl)pyrazine-2-carboxamide]
1 | 679 | Cc1ncc(-c2c(C#N)ccc(Cl)c2F)nc1C(=O)Nc1cnn(C(C)c2cnc(N3C[C@H]4C[C@H]4C3=O)c(C)n2)c1 (single isomer, unassigned) [Example 234, 6-(3-Chloro-6-cyano-2-fluorophenyl)-3-methyl-N-(1-((R or S)-1-(6-methyl-5-((1R,5S)-2-oxo-3-azabicyclo[3.1.0]hexan-3-yl)pyrazin-2-yl)ethyl)-1H-pyrazol-4-yl)pyrazine-2-carboxamide]
